From patent US20130011384A1, “Use of a Material, Produced from Fungal Fermentation, as a Food Supplement” (priority 2010, published 2013) come the findings set out here.

This experiment deals with methanogenic archaea. As to the kind of experiment: In vitro sequential batch fermentation of sheep ruminal fluid with alfalfa hay (Example 2). The experiment is classed as cell-based. As to conditions: for Acetate / Butyrate / Gas / Methane / Propionate / Total VFA: 48 hrs at 39° C., 100 μl/tube, monacolin K 20 μg/ml final. From the text: The effect of a rice extract fermented by a selected strain of Monascus sp., prepared in accordance with Example 1, on ruminal fermentation, specifically on methane production, was studied in vitro by using a sequential batch fermentation system.
Three sheep equipped with rumen cannulae, receiving hay-based feed twice a day, were used as ruminal content donors. The ruminal contents of the three animals were sampled in the morning before feeding, filtered through a cloth with a mesh size of 400 μm in diameter in order to obtain the liquid phase, and mixed in equal quantities. To seventy-five milliliters of this mixed ruminal fluid was added 300 ml of anaerobic buffer solution (Weller & Pilgrim, Br. J. Nutr. 32:341-51. 1974). An aliquot fraction (5 ml) of this ruminal fluid/buffer solution was then transferred into Hungate tubes in a CO2 atmosphere containing 100±2 mg of alfalfa hay. To each tube was added, respectively: (i) 100 μl of the Monascus extract, or (ii) pure monacolin K, (iii) a 25% (v/v) ethanol solution, or (iv) water (see Table 1 below). The tubes were incubated at 39° C. for 48 hrs. Each treatment was performed three times.
After 48 hrs. of incubation, 2 ml of each of the triplicates of each treatment were mixed, and 1.5 ml of this mixture was used to inoculate 3 new Hungate tubes containing 3.5 ml of buffer and 100 mg of alfalfa hay.
Next, 100 μl of the various treatments was added to the tubes (Cf. Table 1 above), and the tubes were again incubated at 39° C. while stirring for an additional 48 hrs. This procedure was repeated a second time.
At the end of each 48-hr. period, gas production and concentrations of methane and of volatile fatty acids resulting from fermentation were measured.

Consider `CC[C@H](C)C(=O)O[C@H]1C[C@@H](C)C=C2C=C[C@H](C)[C@H](CC[C@@H]3C[C@@H](O)CC(=O)O3)[C@H]21` [Monacolin K, monacolin K], for which, where the note is “1st Transfer”, the Acetate is 69.6 ± 1.5 mmol/L, the Butyrate worked out at 6.1 ± 0.1 mmol/L, the Gas is 21.9 ± 0.3 mL and the Methane was determined as 162.5 ± 22.9 µmol. Under “1st Transfer”, the Propionate is 16.7 ± 0.4 mmol/L and the “Total VFA” value came out at 96.3 ± 2.1. Besides, for the setting “2nd Transfer”, the Acetate turned out to be 49.1 ± 3.8 mmol/L, the Butyrate came to 5.9 ± 0.7 mmol/L, the Gas came to 17.8 ± 0.5 mL and the Methane is 16.2 ± 17.0 µmol. Further, for the setting “2nd Transfer”, the Propionate amounted to 19.7 ± 2.8 mmol/L and the “Total VFA” value is on record as 76.5 ± 7.4. Besides, where the note is “3rd Transfer”, the Acetate is 57.3 ± 6.9 mmol/L, the Butyrate is 6.6 ± 1.0 mmol/L, the Gas stood at 19.2 ± 0.4 mL and the Methane was 59.1 ± 9.4 µmol. For the same molecule, under “3rd Transfer”, the Propionate was 28.5 ± 3.5 mmol/L and the “Total VFA” value was determined as 95.1 ± 11.5. Also, the methane-production-reducing effect entry (in vitro, under the same conditions as the Monascus fermentation product) is on record as “no methane-production-reducing effect”.
